# Assay results: US5232684A, “Labelled resiniferatoxin, compositions thereof, and methods for using the same” (priority 1990, dated 1993)
# Like-named read-outs stand apart in the source and are kept apart here.
# Experiments:
# [1] = biological target: T1, capsaicin receptor (rat DRG) (Rattus norvegicus, UniProt O35433); experiment: RTX binding in DRG preparations after in vivo RTX treatment
# T1 construct: homotetramer
# [2] = system: capsaicin receptor (sheep DRG); experiment: [^3H]RTX binding to sheep DRG membranes; conditions: DRG from sheep
# Sprague-Dawley rats = experiment: Induction of ear edema in Sprague-Dawley rats; type: in vivo, rat; conditions: 2×10^-7 g/ear
# Text: [^3 H]RTX (37 Ci/mmol) is synthesized by esterification of resiniferonol 9,13,14-orthophenylacetate (Chemicals for Cancer Research, Inc., Chaska, MN) at the C20 position with [^3 H]homovanillic acid (Chemical Synthesis and Analysis Laboratory, NCI-FCRF, Frederick, MD). The labelled compound is purified on HPLC and cochromatographed with authentic RTX (Chemicals for Cancer Research, Inc., Chaska, MN). The biological activity of [^3 H]RTX is confirmed in 2 assays: induction of hypothermia in CD-1 mice (10^-5 g/kg s.c.) and induction of ear edema in Sprague-Dawley rats (2×10^-7 g/ear).
# [3] = biological target: T2, capsaicin receptor (rat DRG membranes) (Rattus norvegicus, UniProt O35433); experiment: biochemical; type: binding
# T2 construct: membrane preparations from dorsal root ganglia (DRG) of female Sprague-Dawley rats; from tissue; host or cells: dorsal root ganglia of female Sprague-Dawley rats
# Method: (§1) Membrane preparations are obtained from the DRG and Gasser ganglia of female Sprague-Dawley rats (250-300 g); animals are sacrificed by decapitation under ether anesthesia, the ganglia removed and collected into ice-cold disrupting buffer (5 mM KCl, 5.8 mM NaCl, 2 mM MgCl2, 12 mM glucose, 137 mM sucrose, 10 mM HEPES, 5 mM DTT, 2 mM EGTA, pH 7.4). After homogenization with the aid of a Polytron tissue homogenizer, samples are filtered over surgical gauze and then washed twice with the same buffer and stored at -70° C. Particulate fractions are obtained from other rat neural tissues (cerebellum, spinal cord, preoptic region, striatum, substantia nigra) and from DRG of pigs (Mt. Airy Locker Co., Mt. Airy, MD), sheep, cows (kindly provided by Dr. Solomon, USDA, Beltsville, MD), and chickens (Truslow Farms, Chesterton, MD) by a similar procedure.
# (§2) The binding assays are carried out in a volume of 250 ul, containing assay buffer (same as the disrupting buffer but omitting DTT and EGTA and including 0.75 mM CaCl2), 26-30 ug of membrane protein and 0.25 mg/ml bovine serum albumin. […] Tubes are kept on ice while the additions are made. The assay mixture is incubated for 10 min at 37° C.; it is then cooled on ice. 150 ul of the mixture is pipetted onto Whatman GF/C or GF/F glass fiber filters presoaked with 10 mg/ml bovine serum albumin in 20 mM Tris-Cl (pH 7.4) and filtered immediately. An aliquot of 50 ul of the mixture is removed to determine total radioactivity. The filters are washed with 100 ml of ice-cold 20 mM Tris-Cl, pH 7 4, containing 0.1 mg/ml bovine serum albumin, and the bound radioactivity is determined by scintillation counting. Non-specific binding is determined in the presence of 100-1000 nM non-radioactive RTX.
# (§3) Binding data from saturation experiments using increasing concentrations of hot ligand are analyzed using the collection of computer programs described by McPherson (McPherson, G.A., Analysis of radioligand binding experiments: a collection of computer programs for the IBM PC, J.Pharmacol.Methods, 14 (1985) 213-228).
# (§4) Scatchard and Hill transformations are performed by the Equilibrium Binding Data Analysis program referred to as EBDA. Data are further analyzed by the curvilinear regression program LIGAND (Munson, R.J. and Rodbard, D., LIGAND: a versatile computerized approach for characterization of ligand-binding systems, Anal.Biochem, 107 (1980) 220-239).
# (§5) RTX binding is also analyzed in the presence of a fixed, low (60 pM or 300 pM) concentration of [^3 H]RTX and increasing concentrations of non-radioactive RTX or other ligand. […] The Ki value for RTX is calculated from the relationship Ki =ID50 -L; the Ki values for other ligands are calculated from the general form of the equation (Cheng, Y.C. and Prusoff, W.H., Relation between the inhibition constant (Ki) and the concentration of inhibitor which causes 50 per cent inhibition (I50) of an enzymatic reaction, Biochem. Pharmacol., 22 (1973) 3099-3108) Ki =IC50 /(1+L/Kd) where L=concentration of labelled ligand and Kd =dissociation constant of radioactive ligand as determined in the saturation experiments using variable concentrations of hot ligand. Comparison of the quality of fit using single and multiple site competition models is performed by the LIGAND program.
# [^3 H]RTX binding is examined using membrane preparations from dorsal root ganglia (DRG) of female Sprague-Dawley rats.
# [4] = biological target: T3, capsaicin receptor (rat Gasser ganglia) (Rattus norvegicus, UniProt O35433); experiment: biochemical; type: binding; conditions: rat Gasser ganglia
# T3 construct: from tissue; host or cells: Gasser ganglia of female Sprague-Dawley rats
# Method: as §1, §2, §3, §4, §5
# Gasser ganglia represents the […] homolog of the dorsal root ganglia.
# [5] = system: capsaicin receptor (cow DRG); experiment: [^3H]RTX binding to cow DRG membranes; conditions: DRG from cows
# rat cerebellum = experiment: [^3H]RTX binding to rat cerebellum
# T3 sequence (O35433 whole entry): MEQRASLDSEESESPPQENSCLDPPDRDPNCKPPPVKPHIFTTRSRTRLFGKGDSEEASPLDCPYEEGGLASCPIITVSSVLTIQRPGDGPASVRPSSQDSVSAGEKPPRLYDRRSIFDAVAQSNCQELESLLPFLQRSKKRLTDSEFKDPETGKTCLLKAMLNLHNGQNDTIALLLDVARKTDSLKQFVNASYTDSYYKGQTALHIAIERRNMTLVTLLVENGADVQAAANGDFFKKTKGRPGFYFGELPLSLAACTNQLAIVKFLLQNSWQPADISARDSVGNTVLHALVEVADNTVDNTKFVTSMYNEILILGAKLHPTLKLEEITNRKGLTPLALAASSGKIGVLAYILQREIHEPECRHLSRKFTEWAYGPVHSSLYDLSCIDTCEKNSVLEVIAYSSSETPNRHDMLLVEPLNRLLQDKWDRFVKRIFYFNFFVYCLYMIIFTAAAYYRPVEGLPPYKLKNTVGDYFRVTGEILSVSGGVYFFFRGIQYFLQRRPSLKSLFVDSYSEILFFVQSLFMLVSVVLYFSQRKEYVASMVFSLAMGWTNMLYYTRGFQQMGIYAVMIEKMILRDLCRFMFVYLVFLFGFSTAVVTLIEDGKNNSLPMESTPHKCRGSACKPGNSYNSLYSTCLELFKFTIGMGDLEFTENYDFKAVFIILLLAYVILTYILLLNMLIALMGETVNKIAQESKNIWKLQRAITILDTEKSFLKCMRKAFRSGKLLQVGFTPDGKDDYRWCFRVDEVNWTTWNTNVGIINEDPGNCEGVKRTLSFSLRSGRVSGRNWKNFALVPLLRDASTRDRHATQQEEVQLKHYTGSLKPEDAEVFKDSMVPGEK
# T2 sequence (O35433 whole entry): as above
# T1 sequence (O35433 whole entry): as above
smiles,measurement,setting,value
"C=C(C)[C@]12C[C@@H](C)[C@@]34O[C@](Cc5ccccc5)(O[C@@H]1[C@@H]3C=C(COC(=O)Cc1ccc(O)c(OC)c1)C[C@]1(O)C(=O)C(C)=C[C@@H]41)O2 [[^3 H]RTX, [^3 H]resiniferatoxin]",[^3H]RTX binding sites in neonatally treated animals,[1],very significant loss
same,specific binding,[2],Specific binding is observed
same,biological activity: induction of ear edema,Sprague-Dawley rats,confirmed
same,Bmax (summary),[3]; rat DRG,160 fmol/mg
same,specific binding to the DRG membranes,[3]; rat DRG,"specific, saturable binding"
same,Hill coefficient,[3]; rat DRG membranes,0.96
same,specific binding of the total at the Kd,"[3]; rat DRG membranes, at the Kd",approximately 50%
same,Bmax (Scatchard analysis),"[3]; rat DRG membranes, 3 separate determinations",150 fmol/mg protein
same,Kd,"[3]; rat DRG membranes, data cumulated from 3 separate determinations, read-out: Kd (Scatchard analysis)",0.3 nM
same,"Bmax (curvilinear analysis, LIGAND)","[3]; rat DRG membranes, final parameter estimate",160 fmol/mg protein
same,Kd,"[3]; rat DRG membranes, one site model, final parameter estimate, read-out: Kd (curvilinear analysis, LIGAND)",0.27 nM
same,Kd,"[3]; rat DRG, read-out: Kd (summary)",0.27 nM
same,Hill coefficient,[4],0.87
same,Bmax,"[4]; 3 separate experiments, LIGAND",90 fmol/mg
same,Kd,"[4]; 3 separate experiments, LIGAND",0.13 nM
same,specific binding,[5],Specific binding is observed
same,specific binding,rat cerebellum,no specific binding
